Laboratory results: patent US12239648B2, “KIF5B-RET fusion molecules and uses thereof” (Foundation Medicine, Inc., priority 2011, dated 2025)

Tests used:
[1] = tested on: Thyroid cancers and cell lines harboring PTC-RET translocations; settings: PTC/RET translocations overexpressing the RET kinase domain; Henderson 2008, Carlomagno 2006; cited from earlier work
KIF5B-RET Ba/F3 cells = test: Effects of drugs on Ba/F3 cells transfected with KIF5B-RET fusion constructs (IL-3 independent growth); assay type: cell-based; settings: Ba/F3 cells expressing KIF5B-RET, FIG. 8
Text: FIG. 8 is a graph showing the effects of different drugs on Ba/F3 cells transfected with KIF5B-RET fusion constructs.

## CNC(=O)c1cc(Oc2ccc(NC(=O)Nc3ccc(Cl)c(C(F)(F)F)c3)cc2)ccn1 [sorafenib]
[1]
  sensitivity of thyroid cancer and cell lines harboring PTC/RET translocations: sensitive
KIF5B-RET Ba/F3 cells
  sensitivity of KIF5B-RET transformed Ba/F3 cells to drug: sensitive
